Molecular target: T1, VvD14c (Vitis vinifera, UniProt A0ACM8QNI4)
T1 construct: gene VIT_18s0001g09140; pET-28b, His-tag, E. coli Rosetta (DE3); VvD14c encodes 267 amino acids
Test: surface plasmon resonance (Biacore 8K, CM5 chip, LMW multi-cycle kinetics/affinity)
Format: binding

T1 sequence (A0ACM8QNI4 entry or part of it): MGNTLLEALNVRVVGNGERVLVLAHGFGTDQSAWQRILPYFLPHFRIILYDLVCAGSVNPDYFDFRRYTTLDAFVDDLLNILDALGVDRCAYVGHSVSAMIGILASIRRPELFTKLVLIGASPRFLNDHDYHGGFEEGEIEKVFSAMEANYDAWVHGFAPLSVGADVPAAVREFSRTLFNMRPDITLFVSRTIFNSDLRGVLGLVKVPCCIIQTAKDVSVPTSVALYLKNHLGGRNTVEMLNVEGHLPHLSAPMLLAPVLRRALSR

CC1=C[C@@H](O/C=C2/C(=O)O[C@@H]3c4ccccc4C[C@H]23)OC1=O [GR24]
Kd: 5.65 nM

From PMC11515387, “VvD14c-VvMAX2-VvLOB/VvLBD19 module is involved in the strigolactone-mediated regulation of grapevine root architecture” (Molecular Horticulture, 2024)
